Literature values as cited in patent US6569857B1, “Dietary supplement” (Drugtech Corporation, priority 1999, dated 2003).

How the values were obtained:
[1] = tested on: spermatozoal zona binding; details: oral dosing over a three month period, male infertility
[2] = tested on: malondialdehyde concentrations; details: oral vitamin E, male infertility patients; high levels are indicia of decreased sperm motility

In the case of vitamin E, the “increase in spermatozoal zona binding” value [1] is listed as 50% and the malondialdehyde concentrations [2] is listed as “significantly decreased”.
